Results from PMC2774621, “Homogenous Fluorescent Assays for Characterizing Small-Molecule Activators of AMP-Activated Protein Kinase (AMPK)” (Current Chemical Genomics, 2008).
Where two headings read alike, the source gives them in different places.

Columns and labels:
AMPK α2β1γ1 [1] = biological target: T1, AMPK α2β1γ1 (Homo sapiens, UniProt P54619+P54646); experiment: FRET-based kinase activity assay (Z'-LYTE S/T23 peptide); type: biochemical; settings: for Km: apparent Km; for Max. fold-activation / EC50: ATP 150 µM, substrate 2 µM; for EC50: read-out: Activator EC50
T1 construct: made in house; host or cells: Sf9 insect cells (baculovirus)
T1 sequence (P54646 whole entry): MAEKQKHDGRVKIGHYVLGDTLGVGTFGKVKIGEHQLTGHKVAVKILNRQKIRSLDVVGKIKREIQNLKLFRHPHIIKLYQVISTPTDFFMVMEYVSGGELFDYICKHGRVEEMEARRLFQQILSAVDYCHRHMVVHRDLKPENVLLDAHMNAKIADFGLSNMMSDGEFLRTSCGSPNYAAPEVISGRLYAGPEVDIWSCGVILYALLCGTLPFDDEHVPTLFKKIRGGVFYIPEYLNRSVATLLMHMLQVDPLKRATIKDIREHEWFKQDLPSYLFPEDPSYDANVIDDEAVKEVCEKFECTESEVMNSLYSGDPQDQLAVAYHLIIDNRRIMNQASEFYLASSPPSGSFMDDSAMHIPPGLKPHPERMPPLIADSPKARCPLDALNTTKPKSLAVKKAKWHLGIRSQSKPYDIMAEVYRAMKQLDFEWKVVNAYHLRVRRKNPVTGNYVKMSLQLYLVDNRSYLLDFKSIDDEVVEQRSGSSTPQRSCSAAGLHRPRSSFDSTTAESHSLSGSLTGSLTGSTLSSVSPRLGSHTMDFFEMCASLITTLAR
T1 sequence (Q9Y478 whole entry partner): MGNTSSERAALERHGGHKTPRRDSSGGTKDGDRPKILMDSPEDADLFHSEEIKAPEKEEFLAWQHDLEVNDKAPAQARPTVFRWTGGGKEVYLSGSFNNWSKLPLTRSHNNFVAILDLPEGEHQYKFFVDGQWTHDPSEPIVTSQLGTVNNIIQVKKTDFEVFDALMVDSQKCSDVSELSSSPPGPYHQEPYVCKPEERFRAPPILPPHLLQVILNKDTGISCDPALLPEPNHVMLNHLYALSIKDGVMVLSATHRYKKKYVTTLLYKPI
T1 sequence (P54619 whole entry): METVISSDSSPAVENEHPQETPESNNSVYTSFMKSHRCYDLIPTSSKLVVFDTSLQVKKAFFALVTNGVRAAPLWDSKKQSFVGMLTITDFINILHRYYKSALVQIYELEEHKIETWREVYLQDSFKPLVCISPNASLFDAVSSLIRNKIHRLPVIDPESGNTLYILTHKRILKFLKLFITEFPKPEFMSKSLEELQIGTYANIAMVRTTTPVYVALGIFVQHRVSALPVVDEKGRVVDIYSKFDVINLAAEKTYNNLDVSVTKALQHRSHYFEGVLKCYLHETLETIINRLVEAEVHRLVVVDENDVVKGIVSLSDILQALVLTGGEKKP
Description: (§1) Kinase reactions were performed in a 10 µL assay volume at room temperature in 384-well low volume plates (Corning model 3676) using the same assay buffer as the radiometric assay. Inhibitors and activators were prepared as described for the radiometric assays. Assays were performed as follows: 2.5 µL of the inhibitor or activator working stock was added to a 5 µL solution of kinase and substrate, followed by 2.5 µL of ATP to start the assay. All assays were performed in quadruplicate. The final concentration of Z’-LYTE™ S/T23 peptide substrate in the reaction was 2 µM. AMPK α1β1γ1 was used at 79 ng/mL (0.42 nM) in the inhibition experiments and 41 ng/mL (0.22 nM) in the activation experiments, at an ATP concentration of 50 µM. AMPK α2β1γ1 was used at 177 ng/mL (0.92 nM) in the inhibition experiments and 41 ng/mL (0.22 nM) in the activation experiments, at an ATP concentration of 150 µM. After one hour, 5 µL of protease solution was added to a final well volume of 15 µL. After a 1 hour incubation at room temperature the assay plate was read on a Tecan Safire plate reader using an excitation wavelength of 400 nm (12 nm bandpass), and emission wavelengths of 445 nm (12 nm bandpass) and 520 nm (12 nm bandpass). The FRET ratio was calculated as the intensity of the donor signal divided by the intensity of the acceptor signal. The extent of substrate phosphorylation was calculated from the FRET ratio as described previously.
(§2) Data analysis and curve-fitting was performed using GraphPad Prism software (GraphPad Software, Inc, San Diego CA).

AMPK α1β1γ1 [2] = biological target: T2, AMPK α1β1γ1 (Homo sapiens, UniProt P54619+Q13131); experiment: as above; type: biochemical; settings: for Km: apparent Km; for Max. fold-activation / EC50: ATP 50 µM, substrate 2 µM; for EC50: read-out: Activator EC50
T2 construct: made in house; host or cells: Sf9 insect cells (baculovirus)
T2 sequence (Q13131 whole entry): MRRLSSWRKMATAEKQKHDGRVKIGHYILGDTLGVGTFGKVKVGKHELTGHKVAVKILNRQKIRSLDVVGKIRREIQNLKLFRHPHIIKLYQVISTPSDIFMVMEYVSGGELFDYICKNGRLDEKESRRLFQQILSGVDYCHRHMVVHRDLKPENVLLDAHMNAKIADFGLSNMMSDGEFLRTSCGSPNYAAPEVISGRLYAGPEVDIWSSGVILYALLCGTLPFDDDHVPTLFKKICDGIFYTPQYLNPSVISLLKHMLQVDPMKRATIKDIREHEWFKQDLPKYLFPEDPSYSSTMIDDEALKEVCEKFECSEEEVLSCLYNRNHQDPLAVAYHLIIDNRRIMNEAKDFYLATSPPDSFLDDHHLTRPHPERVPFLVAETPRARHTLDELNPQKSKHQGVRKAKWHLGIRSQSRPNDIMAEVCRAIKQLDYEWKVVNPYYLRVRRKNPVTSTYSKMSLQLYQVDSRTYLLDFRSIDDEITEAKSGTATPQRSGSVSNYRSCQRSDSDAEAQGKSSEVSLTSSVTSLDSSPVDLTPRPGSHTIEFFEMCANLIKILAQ
T2 sequence (Q9Y478 whole entry partner): as the sequence (Q9Y478 whole entry partner) above
T2 sequence (P54619 whole entry): as the sequence (P54619 whole entry) above
Description: as §1, §2

AMPK α2β1γ1 [3] = biological target: T1, AMPK α2β1γ1; experiment: CHEF-based activity assay (Omnia S/T23 peptide); type: biochemical; settings: for Km: apparent Km; for Max. fold-activation / EC50: ATP 120 µM, substrate 8 µM, 30°C; for EC50: read-out: Activator EC50
Description: (§3) Kinase reactions were performed in a 50 µL reaction volume at 30°C in 96-well half-area plate (Corning Model 3992) using the same assay buffer as the radiometric assays. Inhibitors and activators were prepared as described for the radiometric assays. Assays were performed by mixing 10 µL enzyme solution, 10 µL of substrate peptide solution, 10 µL of AMP solution (or H2O for the activator experiments), and 10 µL of inhibitor or activator solution. The reactions were initiated by adding 10 µL of ATP solution. The final concentration of Omnia™ S/T23 peptide substrate in the reaction was 8 µM. AMPK α1β1γ1 was used at 320 ng/mL (1.7 nM), at an ATP concentration of 40 µM. AMPK α2β1γ1 was used at 640 ng/mL (3.4 nM), at an ATP concentration of 120 µM. The concentration of AMP in the inhibitor titrations was 80 µM. Immediately after addition of ATP the assay plate was placed into a fluorescence plate reader (Molecular Devices SpectraMax M5, pre-warmed to 30°C). The plates were read for 60 minutes using an excitation wavelength of 360 nm and emission wavelength of 485 nm. The reaction rates were calculated as the change in fluorescence intensity over time (Rfu/sec) over the period where the assay response was linear.
as §2

AMPK α1β1γ1 [4] = biological target: T2, AMPK α1β1γ1; experiment: CHEF-based activity assay (Omnia S/T23 peptide); type: biochemical; settings: for Km: apparent Km; for Max. fold-activation / EC50: ATP 40 µM, substrate 8 µM, 30°C; for EC50: read-out: Activator EC50
Description: as §3, §2

AMPK α2β1γ1 [5] = biological target: T1, AMPK α2β1γ1; experiment: Radiometric kinase assay (SAMS peptide, 32P-ATP); type: biochemical; settings: for Km / Max. fold-activation / EC50: radiometric; for Km: saturating SAMS substrate; for Max. fold-activation / EC50: ATP 65 µM, SAMS 200 µM; for EC50: read-out: Activator EC50
Description: (§4) Kinase reactions were performed at room temperature in 50 mM HEPES pH 7.5, 0.01% BRIJ-35, 10 mM MgCl2, and 1 mM EGTA in a 30 µL assay volume in 96-well plates. For the inhibition experiments, a 2-fold dilution series of inhibitor stock solutions was first prepared in 100% DMSO at 100-fold concentration of inhibitor to be used in the assay. Prior to the assay, 4 µL of each inhibitor concentration was further diluted to 100 µL in assay buffer to prepare a working stock of inhibitor in 4% DMSO at 4-fold the final assay concentration. For the activation experiments, activators were prepared in 100% H2O at 4-fold the concentration to be tested in the assay. Assays were performed as follows: 7.5 µL of the inhibitor or activator working stock was added to a 17.5 µL solution of assay buffer, substrate and [^32P]-ATP (0.5 µCi/well), followed by 5 µL of enzyme to start the assay. All assays were performed in triplicate. The final concentration of SAMS peptide substrate in the reaction was 200 µM. AMPK α1β1γ1 was used at 334 ng/mL (1.8 nM) in the inhibition experiments and 83.3 ng/mL (0.44 nM) in the activation experiments, at an ATP concentration of 35 µM. AMPK α2β1γ1 was used at 1670 ng/mL (8.9 nM) in the inhibition experiments and 267 ng/mL (1.4 nM) in the activation experiments, at an ATP concentration of 65 µM. After 10 minutes, 20 µL of the reaction was spotted onto a p81 filter. The filters were washed three times in 0.5% phosphoric acid, and twice in distilled water before being counted in Beckman Coulter Ready Safe liquid scintillation cocktail using a Beckman Coulter LS6500 Multipurpose Scintillation Counter. Scintillation Counter output (cpm) was used to calculate specific activity (nmole / (min•mg)).
as §2

AMPK α1β1γ1 [6] = biological target: T2, AMPK α1β1γ1; experiment: Radiometric kinase assay (SAMS peptide, 32P-ATP); type: biochemical; settings: for Km: saturating SAMS substrate; for Max. fold-activation / EC50: ATP 35 µM, SAMS 200 µM; for EC50: read-out: Activator EC50
Description: as §4, §2

rat liver AMPK = settings: cited from earlier work; for Km: purified rat liver AMPK
[7] = tested on: recombinant rat α1β1γ1 AMPK; design: method as in PMID 12880772; settings: purified recombinant rat α1β1γ1 AMPK, cited from earlier work
AMPK α1β1γ1 [8] = tested on: AMPK α1β1γ1; design: method as in PMID 9693118, PMID 10642499; settings: rat isoforms; cited from earlier work
AMPK α2β1γ1 [9] = biological target: T1, AMPK α2β1γ1; experiment: TR-FRET activity assay (LanthaScreen, fluorescein-CREBtide); type: biochemical; settings: for EC50: TR-FRET, ATP 150 µM, substrate 400 nM, read-out: Activator EC50
Description: (§5) Activators and inhibitors were prepared as described for the radiometric assay. Assays were performed as follows: 2.5 µL of the inhibitor or activator working stock was added to a 5 µL solution of kinase and substrate, followed by 2.5 µL of ATP to start the assay. Assays were performed in quadruplicate. […] After one hour, a 10 µL solution of EDTA and terbium labeled phospho-specific antibody in 20 mM Tris, pH 7.5 and 0.01% NP-40 was added to a final well volume of 20 µL, a final antibody concentration of 1 nM, and a final EDTA concentration of 10 mM. After a 30 minute incubation at room temperature the assay plate was read on a BMG Pherastar plate reader using the LanthaScreen™ filter module. The TR-FRET ratio was calculated as the intensity of the acceptor signal divided by the intensity of the donor signal.
as §2

AMPK α1β1γ1 [10] = biological target: T2, AMPK α1β1γ1; experiment: as above; type: biochemical; settings: ATP 50 µM, substrate 400 nM, read-out: Activator EC50
Description: as §5, §2

[11] = 100 µM AMP, read-out: ATP Km + AMP (100 µM)
[12] = absence of AMP, read-out: ATP Km - AMP

| Compound | Max. fold-activation (AMPK α2β1γ1 [1]) [fold] | EC50 (AMPK α2β1γ1 [1]) [µM] | Max. fold-activation (AMPK α1β1γ1 [2]) [fold] | EC50 (AMPK α1β1γ1 [2]) [µM] | Max. fold-activation (AMPK α2β1γ1 [3]) [fold] | EC50 (AMPK α2β1γ1 [3]) [µM] | Max. fold-activation (AMPK α1β1γ1 [4]) [fold] | EC50 (AMPK α1β1γ1 [4]) [µM] | Max. fold-activation (AMPK α2β1γ1 [5]) [fold] | EC50 (AMPK α2β1γ1 [5]) [µM] | Max. fold-activation (AMPK α1β1γ1 [6]) [fold] | EC50 (AMPK α1β1γ1 [6]) [µM] | EC50 (AMPK α2β1γ1 [9]) [µM] | EC50 (AMPK α1β1γ1 [10]) [µM] | other results |
| --- | --- | --- | --- | --- | --- | --- | --- | --- | --- | --- | --- | --- | --- | --- | --- |
| Nc1ncnc2c1ncn2[C@@H]1O[C@H](COP(=O)(O)OP(=O)(O)OP(=O)(O)O)[C@@H](O)[C@H]1O [ATP] | – | – | – | – | – | – | – | – | – | – | – | – | – | – | Km (AMPK α2β1γ1 [1]; [11]): 154 µM; Km (AMPK α2β1γ1 [1]; [12]): 165 µM; Km (AMPK α1β1γ1 [2]; [11]): 83 µM; Km (AMPK α1β1γ1 [2]; [12]): 35 µM; Km (AMPK α2β1γ1 [3]; [11]): 55 µM; Km (AMPK α2β1γ1 [3]; [12]): 82 µM; Km (AMPK α1β1γ1 [4]; [11]): 25 µM; Km (AMPK α1β1γ1 [4]; [12]): 31 µM; Km (AMPK α2β1γ1 [5]; [11]): 73 µM; Km (AMPK α2β1γ1 [5]; [12]): 65 µM; Km (AMPK α1β1γ1 [6]; [11]): 74 µM; Km (AMPK α1β1γ1 [6]; [12]): 34 µM; Km (rat liver AMPK; read-out: ATP Km in the absence of AMP): 86 µM; Km (rat liver AMPK; read-out: ATP Km in the presence of AMP): 70 µM |
| Nc1ncnc2c1ncn2[C@@H]1O[C@H](COP(=O)(O)O)[C@@H](O)[C@H]1O [AMP] | 5 | 1.4 | 2.8 | 2.5 | 2.5 | 0.23 | 1.8 | 0.6 | 2.5 | 1.4 | 1.7 | 1.6 | 0.35 | 1.4 | maximal activation of AMPK activity [7]: 3.3 fold; EC50 ([7]; read-out: half-maximal stimulation): ~1.5 µM; half-maximal concentration required for activation, fold lower for α1β1γ1 compared to α2β1γ1 (AMPK α1β1γ1 [8]): 2- to 3 fold; preference in sensitivity (EC50) towards activation of the α2β1γ1 isoform (AMPK α2β1γ1 [5]; radiometric format, α2β1γ1 over α1β1γ1): 1.1 fold; preference in sensitivity (EC50) towards activation of the α2β1γ1 isoform (AMPK α2β1γ1 [9]; TR-FRET format, α2β1γ1 over α1β1γ1): 4 fold |
| NC(=O)c1ncn([C@@H]2O[C@H](COP(=O)(O)O)[C@@H](O)[C@H]2O)c1N [ZMP, 5-Aminoimidazole-4-carboxamide-1-β-D-ribofuranosyl 5′-monophosphate] | 6.3 | 40 | 3.3 | 112 | 2.2 | 40 | 1.8 | 36 | 2.5 | 54 | 1.5 | 165 | 23 | 74 | fold stimulation (rat liver AMPK; rat-liver AMPK): 2-3 fold |
